These results are taken from patent US7722893B2, “Use of substitute 2,4-bis (alkylamino) pyrimidines or quinzolines as antimicrobials” (Ciba Specialty Chemicals Corporation, priority 2003, dated 2010).

For one assay, the system named is S. gordonii ATCC 10558. Nature of the assay: MIC of a broadened organism spectrum: oral organisms. Format: cell-based, Streptococcus gordonil. The settings on record: for MIC: Streptococcus gordonii, ATCC10558, 24 hours aerobic with 10% CO2, read-out: minimum inhibiting concentration MIC, oral organisms. An excerpt: (§1) Determination of the Minimum Inhibiting Concentration MIC (ppm) of a Broadened Organism Spectrum: Oral Organisms
(§2) • Medium: thioglycolate bouillon with hemin and menadione Columbia bouillon with hemin and menadione for P. gingivalis and P. nigrescens • Dilution medium: the appropriate amount of the substances was pipetted directly into the medium. • Test organisms: Actinobacillus actinomycetemcomitans ATCC 43718 • Streptococcus gordonil ATCC 10558 • Streptococcus mutans ATCC 33402 • Actinomyces viscosus ATCC 43146 • Fusobacterium nucleatum subsp. polymorphum ATCC 10953 • Porphyromonas gingivalis ATCC 33277 • Prevotella nigrescens ATCC 33563 • Incubation: 7-10 days at 37° C anaerobic, or 24 hours aerobic with 10% CO2 for Streptococci and A. actinomycetemcomitans • Test solution: Stock solutions of all the test substances in ethanol at 1500 ppm (w/w) are used. Test Principle:
(§3) Bacteria are removed from blood agar plates using cotton wool buds and a suitable optical density (McFarland 0.5) is adjusted in an appropriate medium; that solution is used undiluted for F. nucleatum and P. nigrescens, and in a dilution of 1:20 for the other strains. 0.1 ml of bacterial culture is added per 2 ml of active ingredient solution and incubation is carried out as described above.

Assay [1] deals with Proteus vulgaris ATCC 6896. The assay is described as follows: MIC of a broadened organism spectrum (agar). The assay is classed as cell-based. The settings on record: for MIC: ATCC6896, 24 hours at 37° C., read-out: minimum inhibiting concentration MIC. An excerpt:
(§4) Determination of the Minimum Inhibiting Concentration MIC [ppm] of a Broadened Organism Spectrum
(§5) • Medium: Casein/soybean flour peptone agar (Merck) • *Sabouraud 4% glucose agar (Merck) • Dilution medium: sterile 0.85% NaCl solution • Test organisms: Staphylococcus aureus ATCC 6853 and 9144 • Staphylococcus epidermidis ATCC 12228 • C. xerosis ATCC 373 ** • C. minutissimum ATCC 23348 • Proplonibacterium acnes ATCC 6919 • Escherichia coli ATCC 10536 and NCTC 8196 • Proteus vulgaris ATCC 6896 • Klebsiella pneumoniae ATCC 4352 • Salmonella choleraesuis ATCC 9184 • Pseudomonas aeruginosa ATCC 15442 • *Candida albicans ATCC 10231 • *Aspergillus niger ATCC 6275 • Incubation: 24 hours at 37° C. • *3 days at 28° C. • Test solution: 1% stock solutions of all the test substances in a suitable solvent are prepared and diluted in serial dilutions (1:10, 1:100 and 1:1000 dilution), where possible diluted to such an extent that the end concentrations in agar are from 500 ppm to 10 ppm. Test principle:
(§6) 0.3 ml of the dilution stage in question is mixed with 15 ml of still-liquid nutrient medium.
(§7) When the nutrient substrate has solidified, 10 μl portions of a suitable organism dilution of the test strains in 0.85% NaCl solution are spotted onto the agar medium: […]

The test system of assay [2] is Aspergillus niger ATCC 6275. Nature of the assay: MIC of a broadened organism spectrum (agar). The assay is classed as cell-based. The settings on record: Sabouraud 4% glucose agar, 3 days at 28° C.; for MIC: ATCC6275, 72 h, read-out: minimum inhibiting concentration MIC.
From the text: as §4, §5, §6, §7

Assay [3] relates to Escherichia coli NCTC 8196. The assay is described as follows: MIC of a broadened organism spectrum (agar). Format: cell-based. The settings on record: for MIC: NCTC8196, 24 hours at 37° C., read-out: minimum inhibiting concentration MIC.
From the text: as §4, §5, §6, §7

For assay [4], the system named is Candida albicans ATCC 10231. Nature of the assay: MIC of a broadened organism spectrum (agar). The assay is classed as cell-based. The settings on record: Sabouraud 4% glucose agar, 3 days at 28° C.; for MIC: ATCC10231, 72 h, read-out: minimum inhibiting concentration MIC.
From the text: as §4, §5, §6, §7

For assay [5], the system named is Propionibacterium acnes ATCC 6919. Nature of the assay: MIC of a broadened organism spectrum (agar). The assay is classed as cell-based. The settings on record: 3 days incubation under anaerobic conditions; for MIC: Cutibacterium acnes, ATCC6919, 72 h, read-out: minimum inhibiting concentration MIC.
From the text: as §4, §5, §6, §7

Assay [6] concerns Escherichia coli ATCC 10536. Nature of the assay: MIC of a broadened organism spectrum (agar). Format: cell-based. The settings on record: for MIC: ATCC10536, 24 hours at 37° C., read-out: minimum inhibiting concentration MIC.
From the text: as §4, §5, §6, §7

Assay [7] has as its system Klebsiella pneumoniae ATCC 4352. Nature of the assay: MIC of a broadened organism spectrum (agar). Format: cell-based. The settings on record: for MIC: ATCC4352, 24 hours at 37° C., read-out: minimum inhibiting concentration MIC.
From the text: as §4, §5, §6, §7

For assay [8], the system named is Pseudomonas aeruginosa ATCC 15442. Nature of the assay: MIC of a broadened organism spectrum (agar). Format: cell-based. The settings on record: for MIC: ATCC15442, 24 hours at 37° C., read-out: minimum inhibiting concentration MIC.
From the text: as §4, §5, §6, §7

A further assay has as its system C. xerosis ATCC 373. The assay is described as follows: MIC of a broadened organism spectrum (agar). The assay is classed as cell-based. The settings on record: 3 days incubation; for MIC: Corynebacterium xerosis, ATCC373, 72 h, read-out: minimum inhibiting concentration MIC.
From the text: as §4, §5, §6, §7

Assay [9] deals with Staphylococcus epidermidis ATCC 12228. Nature of the assay: MIC of a broadened organism spectrum (agar). The assay is classed as cell-based. The settings on record: for MIC: ATCC12228, 24 hours at 37° C., read-out: minimum inhibiting concentration MIC.
From the text: as §4, §5, §6, §7

Assay [10] concerns Staphylococcus aureus ATCC 9144. Nature of the assay: MIC of a broadened organism spectrum (agar). The assay is classed as cell-based. The settings on record: for MIC: ATCC9144, 24 hours at 37° C., read-out: minimum inhibiting concentration MIC.
From the text: as §4, §5, §6, §7

Assay [11] relates to Staphylococcus aureus ATCC 6538. The assay is described as follows: MIC of a broadened organism spectrum (agar). The assay is classed as cell-based. The settings on record: for MIC: ATCC6538, 24 hours at 37° C., read-out: minimum inhibiting concentration MIC.
From the text: as §4, §5, §6, §7

Assay [12] deals with Salmonella choleraesuis ATCC 9184. Nature of the assay: MIC of a broadened organism spectrum (agar). Format: cell-based. The settings on record: 24 hours at 37° C.; for MIC: Salmonella enterica, read-out: minimum inhibiting concentration MIC.
From the text: as §4, §5, §6, §7

Assay [13] concerns C. minutissimum ATCC 23348. The assay is described as follows: MIC of a broadened organism spectrum (agar). Format: cell-based. The settings on record: 3 days incubation (Table 3a); for MIC: Corynebacterium minutissimum, ATCC23348, 72 h, read-out: minimum inhibiting concentration MIC.
From the text: as §4, §5, §6, §7

The subject of a further assay is P. gingivalis ATCC 3277. Nature of the assay: MIC of a broadened organism spectrum: oral organisms. Format: cell-based, Porphyromonas gingivalis. The settings on record: 7-10 days at 37° C anaerobic; for MIC: Porphyromonas gingivalis, ATCC3277, Columbia bouillon, read-out: minimum inhibiting concentration MIC, oral organisms.
From the text: as §1, §2, §3

Assay [14] has as its system Fusobacterium nucleatum subsp. polymorphum ATCC 10953. The assay is described as above. Format: cell-based. The settings on record: F. nucleatum subsp. polymorphum ATCC 10953, 7-10 days at 37° C anaerobic; for MIC: Fusobacterium nucleatum, ATCC10953, read-out: minimum inhibiting concentration MIC, oral organisms.
From the text: as §1, §2, §3

Assay [15] deals with Streptococcus mutans ATCC 33402. The description is as above. The assay is classed as cell-based. The settings on record: S. mutans ATCC 33402, 24 hours aerobic with 10% CO2; for MIC: Streptococcus mutans, ATCC33402, read-out: minimum inhibiting concentration MIC, oral organisms.
From the text: as §1, §2, §3

Assay [16] relates to Prevotella nigrescens ATCC 33563. The description is as above. The assay is classed as cell-based. The settings on record: P. nigrescens ATCC 33563, Columbia bouillon, 7-10 days at 37° C anaerobic; for MIC: Prevotella nigrescens, ATCC33563, read-out: minimum inhibiting concentration MIC, oral organisms.
From the text: as §1, §2, §3

Assay [17] deals with Actinomyces viscosus ATCC 43146. The assay is described as above. The assay is classed as cell-based. The settings on record: A. viscosus ATCC 43146, 7-10 days at 37° C anaerobic; for MIC: Actinomyces viscosus, ATCC43146, read-out: minimum inhibiting concentration MIC, oral organisms.
From the text: as §1, §2, §3

Assay [18] has as its system Actinobacillus actinomycetemcomitans ATCC 43718. The assay is described as above. The assay is classed as cell-based. The settings on record: A. actinomycetemcomitans ATCC 43718, 24 hours aerobic with 10% CO2; for MIC: Aggregatibacter actinomycetemcomitans, ATCC43718, read-out: minimum inhibiting concentration MIC, oral organisms.
From the text: as §1, §2, §3

For `CCCCCCCCNc1cc(C)nc(NCCCCCCCC)n1` [PY5, N,N′-bis(2,4-dioctylamino)-6-methylpyrimidine], the “minimum inhibiting concentration MIC, oral organisms” value with S. gordonii ATCC 10558 (24 hours aerobic with 10% CO2) is 15 ppm; with P. gingivalis ATCC 3277 (Columbia bouillon), 7.5 ppm; in assay [14], greater than 15 ppm; in [15], 3.75 ppm; in assay [16], 15 ppm; in assay [17], 3.75 ppm. Also, the “minimum inhibiting concentration MIC, oral organisms” value in assay [18] is given as greater than 15 ppm. Further, the “minimum inhibiting concentration MIC” value was greater than 1000 ppm in [1] (24 hours at 37° C.); greater than 1000 ppm in assay [2]; greater than 1000 ppm in assay [3] (24 hours at 37° C.); greater than 1000 ppm in assay [4]; 3.91 ppm in assay [5]; greater than 1000 ppm in assay [6] (24 hours at 37° C.). In addition, the “minimum inhibiting concentration MIC” value was 250 ppm in assay [7] (24 hours at 37° C.); greater than 1000 ppm in [8] (24 hours at 37° C.); 7.81 ppm in the assay on C. xerosis ATCC 373; 3.91 ppm in [9] (24 hours at 37° C.); 3.91 ppm in assay [10] (24 hours at 37° C.); 3.91 ppm in [11] (24 hours at 37° C.). In addition, the “minimum inhibiting concentration MIC” value is listed as greater than 1000 ppm in assay [12] and 3.91 ppm in [13].
For `Cc1cc(NCc2ccccc2)nc(NCc2ccccc2)n1` [PY8, N,N′-Bis(2,4-dibenzylamino)-6-methylpyrimidine], the MIC with S. gordonii ATCC 10558 was greater than 15 µg/mL; in assay [1] it was greater than 500 µg/mL; in [2] it was 250 µg/mL; in [3], 31.2 µg/mL; in assay [4], 250 µg/mL; in [5], 31.2 µg/mL. Moreover, the MIC in assay [6] is 62.5 µg/mL; in assay [7], 15.6 µg/mL; in assay [8] it was greater than 500 µg/mL; in the assay on C. xerosis ATCC 373, 7.8 µg/mL; in assay [9] it was 31.2 µg/mL; in assay [10], 31.2 µg/mL. In addition, the MIC was 31.2 µg/mL in assay [11]; 62.5 µg/mL in [12]; 15.6 µg/mL in assay [13]; 15 µg/mL with P. gingivalis ATCC 3277; 15 µg/mL in [14]; greater than 15 µg/mL in assay [15]. In addition, the MIC in assay [16] was 15 µg/mL; in [17], 3.75 µg/mL; in assay [18] it was greater than 15 µg/mL.
Turning to `Cc1cc(NCCc2ccccc2)nc(NCCc2ccccc2)n1` [PY9, N,N′-Bis(2,4-diphenylethylamino)-6-methylpyrimidine], the MIC was 15 µg/mL in the assay with S. gordonii ATCC 10558; greater than 500 µg/mL in assay [1]; 250 µg/mL in assay [2]; 15.6 µg/mL in assay [3]; 62.5 µg/mL in assay [4]; 7.8 µg/mL in [5]. Also, the MIC in assay [6] was 250 µg/mL; in assay [7], 7.8 µg/mL; in assay [8] it was greater than 500 µg/mL; in the assay on C. xerosis ATCC 373 it was 1.95 µg/mL; in assay [9] it was 7.8 µg/mL; in [10] it was 7.8 µg/mL. The MIC in assay [11] is 7.8 µg/mL; in [12], 250 µg/mL; in assay [13] it was 3.9 µg/mL; with P. gingivalis ATCC 3277, 7.5 µg/mL; in assay [14], 15 µg/mL; in assay [15] it was 15 µg/mL. Further, the MIC in assay [16] was 7.5 µg/mL; in [17] it was 3.75 µg/mL; in [18], greater than 15 µg/mL.
As to `CCCCCCCCNc1nc(C)cc(N2CCCC2)n1` [PY44], the MIC is 7.5 µg/mL in the assay on S. gordonii ATCC 10558; greater than 500 µg/mL in assay [1]; 500 µg/mL in assay [2]; 15.6 µg/mL in assay [3]; 250 µg/mL in assay [4]; 3.9 µg/mL in assay [5]. Also, the MIC is 62.5 µg/mL in [6]; 7.8 µg/mL in [7]; greater than 500 µg/mL in [8]; 3.9 µg/mL in the assay on C. xerosis ATCC 373; 3.9 µg/mL in assay [9]; 7.8 µg/mL in [10]. Also, the MIC in assay [11] was determined as 7.8 µg/mL; in assay [12], 62.5 µg/mL; in [13], 3.9 µg/mL; with P. gingivalis ATCC 3277, 3.8 µg/mL; in [14], 3.8 µg/mL; in [15], 7.5 µg/mL. The MIC in [16] was 3.8 µg/mL; in assay [17], 3.8 µg/mL; in [18], greater than 15 µg/mL.
